# Laboratory results taken from PubChem BioAssay (NCI).
# Where “and” joins values, the source holds several entries; their conditions need not be identical. Equal entries are not always repeated.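 Briefly, cells in 96-well plates were exposed to five compound concentrations for 48 h, and endpoints were estimated by linear interpolation. GI50 is the concentration that inhibits growth by half. TGI marks complete inhibition of growth.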
# What was measured:
# Test in all cases: inhibition of tumour cell growth, NCI panel, 48 h
# EKVX NSCLC = system: EKVX NSCLC
# RXF 393 renal = system: RXF 393 renal
# ACHN renal = system: ACHN renal
# CAKI-1 renal = system: CAKI-1 renal
# UACC-257 melanoma = system: UACC-257 melanoma
# M14 melanoma = system: M14 melanoma
# K-562 leukemia = system: K-562 leukemia
# MALME-3M melanoma = system: MALME-3M melanoma
# SF-539 CNS = system: SF-539 CNS
# A498 renal = system: A498 renal
SMILES,GI50 (EKVX NSCLC),TGI (EKVX NSCLC),GI50 (RXF 393 renal),TGI (RXF 393 renal),GI50 (ACHN renal),TGI (ACHN renal),GI50 (CAKI-1 renal),TGI (CAKI-1 renal),GI50 (UACC-257 melanoma),TGI (UACC-257 melanoma),GI50 (M14 melanoma),TGI (M14 melanoma),GI50 (K-562 leukemia),TGI (K-562 leukemia),GI50 (MALME-3M melanoma),TGI (MALME-3M melanoma),GI50 (SF-539 CNS),TGI (SF-539 CNS),GI50 (A498 renal),TGI (A498 renal)
O=C1/C=C/[C@@H](O)[C@@H]2C[C@@H](O)C[C@H]2/C=C/CCC[C@H](CCc2ccc(NC(=S)Nc3ccc4c(c3)C(=O)OC43c4ccc(O)cc4Oc4cc(O)ccc43)cc2)O1,0.409 µM,> 100 µM,0.266 µM,0.736 µM,0.803 µM,> 100 µM,1.65 µM,> 100 µM,0.547 µM,> 75.5 µM,0.36 µM,> 49.2 µM,1.17 µM,> 100 µM,2.26 µM,> 100 µM,0.724 µM,> 100 µM,0.141 µM,0.458 µM
O=C(CC1(O)C(=O)Nc2c(Cl)cc(Cl)cc21)c1ccc([N+](=O)[O-])cc1 (stereo not given),–,> 61.9 µM,–,> 100 µM,–,> 100 µM,–,> 100 µM,–,> 54.3 µM,–,> 55.7 µM,–,> 100 µM,–,> 60.7 µM,–,> 68.7 µM,–,> 67.9 µM
Cc1cc2oc(=O)cc(OC/C=C3/CCC(=O)O3)c2cc1C,12.9 µM,30.5 µM,1.83 µM,9.81 µM,0.804 µM,2.04 µM,3.59 µM,17.7 µM,12.3 µM,26.4 µM,2.18 µM,4.87 µM,8.23 µM,34.1 µM,2.39 µM,7.62 µM,1.34 µM,5.7 µM,2.14 µM,12 µM
C=C1C(=O)O[C@H]2C3OC3(C)CC/C=C(/C(=O)OC)[C@@H](OC(C)=O)[C@H](OC(=O)C3(C)OC3C)[C@H]12 (stereo not given in full),5.71 µM and 4.57 µM and 3.81 µg/mL,26.8 µM and 9.61 µg/mL,364 nM and 190 nM and 0.407 µg/mL,838 nM and 531 nM and 0.951 µg/mL,2.07 µM and 434 nM and 0.944 µg/mL,6.36 µM and 3.12 µM and 2.75 µg/mL,206 nM and 1.12 µM and 0.579 µg/mL,478 nM and 2.35 µM and 1.57 µg/mL,1.42 µM and 0.434 µM,2.96 µM and 1.33 µM,1.5 µM and 850 nM and 0.499 µg/mL,3.13 µM and 2.4 µM and 1.29 µg/mL,416 nM and 0.359 µg/mL,1.15 µM and 2.25 µM and 1.15 µg/mL,1.25 µM and 0.257 µM,4.35 µM and 0.941 µM,2.88 µM and 1.98 µM and 3.21 µg/mL,7.5 µM and 6.28 µM and 7.06 µg/mL,1.69 µM and 2.85 µg/mL,4.26 µM and 5.4 µg/mL
CC[C@H](C)C(=O)O[C@H]1CCC=C2C=C[C@H](C)[C@H](CC[C@@H]3C[C@@H](O)CC(=O)O3)[C@H]21,7.93 µM,> 100 µM,3.32 µM,16.6 µM,1.46 µM,5.18 µM,2.6 µM,11.2 µM,73.3 µM,> 100 µM,8.97 µM,> 100 µM,22 µM,> 100 µM,–,> 100 µM,12.8 µM,> 100 µM,0.183 µM,1.36 µM
CN(C)c1ccc2cc3c(cc2c1)Oc1ccccc1N3.[Cl][Zn][Cl],7.01 µM,28.5 µM,3.28 µM,9.01 µM,1.64 µM,3.22 µM,2.91 µM,10.3 µM,3.16 µM,9.36 µM,4.73 µM,18 µM,3.05 µM,> 100 µM,3.04 µM,9.6 µM,3.68 µM,15.6 µM,16.9 µM,34.7 µM
Cc1c(C(=O)/C=C/c2ccc(Cl)cc2)nnn1-c1ccnc2c(C(F)(F)F)cccc12,76.5 µM,> 100 µM,1.05 µM,34.1 µM,51.6 µM,> 100 µM,53.7 µM,> 100 µM,30.2 µM,> 100 µM,> 100 µM,> 100 µM,8.67 µM,> 100 µM,26.8 µM,> 100 µM,51.9 µM,> 100 µM,> 100 µM,> 100 µM
CN(CO)c1nc(N(C)CO)nc(N(C)CO)n1,41.8 µM,> 81.5 µM and 77.7 µM,18 µM,34.1 µM and 22.9 µM,–,79.2 µM and 75.6 µM,26.9 µM,77.4 µM and 65.7 µM,20.6 µM and 21.8 µM,40.7 µM and 44.4 µM,19.5 µM,36.4 µM and 42.8 µM,27.2 µM,140 µM,17.5 µM,34.2 µM and 26.1 µM,23.6 µM and 17.2 µM,52.4 µM and 36.9 µM,–,60.7 µM and 54 µM
O=c1[nH][nH]c(=O)c2c(O)c(-c3ccccc3)ncc12,228 µM,939 µM,27.8 µM and 44.9 µM,62 µM and 187 µM,182 µM,845 µM,83.8 µM and 145 µM,748 µM,46.2 µM and 272 µM,871 µM,32.8 µM and 63.3 µM,385 µM,219 µM,> 1000 µM,30.1 µM and 54.4 µM,278 µM,32.6 µM,95.1 µM,24.9 µM and 32.2 µM,61.7 µM and 119 µM
CN(C)c1ccc(/C=N/n2c(CCCCc3n[nH]c(=S)n3/N=C/c3ccc(N(C)C)cc3)n[nH]c2=S)cc1,> 100 µM,> 100 µM,> 100 µM,> 100 µM,> 100 µM,> 100 µM,> 100 µM,> 100 µM,> 100 µM,> 100 µM,> 100 µM,> 100 µM,> 100 µM,> 100 µM,> 100 µM,> 100 µM,> 100 µM,> 100 µM,> 100 µM,> 100 µM
CCN(CC)CCCNc1nccc2c(C)c3[nH]c4ccncc4c(=O)c3cc12,–,35.7 µM,–,3.18 µM,–,13 µM,–,16.8 µM,–,31.7 µM,–,9.64 µM,–,13 µM,–,14.8 µM,–,11.2 µM,–,24 µM
CC(C)c1ccc(C(O)(C(=O)O)c2ccc(C(C)C)cc2)cc1,–,> 100 µM,–,> 100 µM,–,> 100 µM,–,> 100 µM,–,> 100 µM,–,> 100 µM,–,> 100 µM,–,> 100 µM,–,> 100 µM,–,> 100 µM
CCCCCCCCCCCCCC(=O)NO,–,54.1 µM,–,19 µM,–,39.3 µM,–,52.4 µM,–,77.3 µM,–,36.2 µM,–,34.8 µM,–,83.8 µM,–,37.9 µM,–,63.2 µM
O=c1oc2ccc(I)cc2c(=O)n1-c1ccc(I)cc1F,1.15 µM,8.21 µM,0.861 µM,4.16 µM,0.616 µM,11.7 µM,0.308 µM,2.53 µM,0.522 µM,5.6 µM,0.545 µM,5.87 µM,0.436 µM,> 100 µM,0.36 µM,2.54 µM,0.484 µM,4.29 µM,0.166 µM,0.546 µM
O=C(Nc1cccc(-n2ccc3c(NC(=O)c4ccccc4)nccc32)c1)c1ccc(Cl)c(Cl)c1,0.704 µM,3.34 µM,0.106 µM,0.639 µM,0.177 µM,1.71 µM,0.0531 µM,1.9 µM,1.2 µM,2.98 µM,0.117 µM,0.802 µM,0.0551 µM,–,0.242 µM,2.27 µM,0.197 µM,0.952 µM,0.13 µM,0.735 µM
c1ccc(N2CCN(CCCN3CCc4c([nH]c5ccccc45)C3c3cccnc3)CC2)cc1 (stereo not given),–,> 100 µM,–,> 100 µM,–,> 100 µM,–,> 100 µM,–,> 79.9 µM,–,59.8 µM,–,> 65.6 µM,–,> 77.3 µM,–,> 100 µM,–,> 100 µM
CCCCNP1(NCCCC)=NP(NCCCC)(NCCCC)=NP(NCCCC)(NCCCC)=NP(NCCCC)(NCCCC)=N1,0.25 µM,6.17 µM,1.97 µM,10.2 µM,2.5 µM,> 32.9 µM,9.3 µM,36 µM,1.23 µM,5.55 µM,1.08 µM,5.23 µM,0.103 µM,3.83 µM,0.232 µM,2.6 µM,2.89 µM,8.55 µM,1.93 µM,8.01 µM
COc1ccc2[nH]cc(C3(c4c[nH]c5ccc(OC)cc45)C(=O)Nc4ccc(Cl)cc43)c2c1,2.16 µM,11.9 µM,3.4 µM,13.6 µM,3.71 µM,21.9 µM,2.25 µM,> 100 µM,2.84 µM,> 100 µM,4.06 µM,> 100 µM,3.69 µM,> 100 µM,5.02 µM,46.5 µM,4.39 µM,> 100 µM,4.94 µM,18.7 µM
Cn1c2ccccc2c2c(=O)n(CCCC(=O)NCCc3cnc[nH]3)c3c(-c4ccccc4)nnn3c21,10 µM,23.9 µM,7.41 µM,18.2 µM,9.74 µM,17.9 µM,12 µM,33.4 µM,12 µM,21.6 µM,11.9 µM,24.3 µM,8.9 µM,27 µM,7.55 µM,16.7 µM,9.26 µM,17.2 µM,7.58 µM,15.2 µM
CN(C)C[C@@H]1CCn2cc(c3ccccc32)C2=C(C(=O)NC2=O)c2cn(c3ccccc23)CCO1,3.92 µM,> 10 µM,1.77 µM,5.17 µM,2.04 µM,> 10 µM,1.36 µM,> 10 µM,2.08 µM,> 10 µM,1.03 µM,> 10 µM,0.916 µM,3.37 µM,1.17 µM,5.01 µM,1.08 µM,2.45 µM,1.13 µM,4.54 µM
COc1ccc(C(=O)/C=C/c2c(C(F)(F)F)nc3ccccn23)cc1OC,3.39 µM,> 100 µM,1.97 µM,8.68 µM,2.6 µM,> 39.5 µM,1.71 µM,> 24.5 µM,2.43 µM,> 100 µM,2.22 µM,> 66.7 µM,0.377 µM,> 100 µM,13.8 µM,> 100 µM,2.14 µM,–,3.46 µM,21.7 µM
CCc1nc(N)nc(N)c1-c1ccc(N(C)Cc2ccccc2)c([N+](=O)[O-])c1,–,35 µM,–,22.9 µM,–,36.1 µM,–,25.4 µM,–,14.2 µM,–,11.3 µM,–,3.98 µM,–,17.1 µM,–,9.97 µM,–,19.8 µM
CCc1c2c(nc3ccc(OC(=O)OCc4ccc(B5OC(C)(C)C(C)(C)O5)cc4)cc13)-c1cc3c(c(=O)n1C2)COC(=O)[C@]3(O)CC,0.345 µM,> 55.2 µM,0.0136 µM,0.134 µM,< 0.01 µM,0.432 µM,< 0.01 µM,0.315 µM,0.116 µM,3.22 µM,< 0.01 µM,0.92 µM,0.0368 µM,> 100 µM,0.0279 µM,0.637 µM,< 0.01 µM,0.0286 µM,0.011 µM,0.0725 µM
CC(C)c1ccc(C(c2c(O)c3ccccc3oc2=O)c2c(O)c3ccccc3oc2=O)cc1,–,55.2 µM,–,48.1 µM,–,86.7 µM,–,46.5 µM,–,53 µM,–,38.4 µM,–,51.4 µM,–,38.4 µM,–,39.4 µM,–,35.4 µM
